In patent publication US20060067916A1, “Sperm cell process system” (XY, Inc., priority 2002, published 2006):

Tested on: stallion sperm cells
Test: Motility of Hoechst-stained stallion sperm diluted in KMT with or without stimulant (Example 5)
Assay type: cell-based
Set-up: Motility 3h: unit not given here
Details: for Motility 3h / Progressive 3h: Motility Stimulants, 2 mM caffeine or 2.5 mM NaPyruvate in KMT; for Motility 3h with stimulant / Progressive 3h with stimulant: in % (unit assumed)
Description: Sperm cells in ejaculates from three stallions were initially evaluated for volume, concentration, and motility. The remaining portion of each ejaculate was extended in KMT to 25×10^6 sperm/mL and stored at RT for 18 hr. The stored ejaculates were pelleted by centrifugation at 600 g for 10 min. Pelleted sperm cells were resuspended in KMT with Hoechst to generate sperm samples of 400×10^6 sperm/mL,12.4 μl Hoechst, adjusted to either 7.1 pH or 7.9 pH, and then incubated at 34° C. for either 30 min or 60 min. Stained sperm cell samples were extended with either 1 mL KMT with 1.5 μl/mL 5% red food dye; 1 mL KMT with 2.0 μl/mL 5% red food dye; 1 mL KMT with 2.5 μl/mL 5% red food dye; or 1 mL KMT with 3.0 μl/mL […] red food dye. Sperm cell samples were then evaluated for % dead and resolution by flow cytometry analysis, and motility was evaluated by further diluting treated samples in either 140 μl KMT: 20 μl sperm cells; 140 μl KMT 2 mM caffeine: 20 μl sperm cells; 140 μl KMT, 2.5 mM NaPyruvate: 20 μl sperm cells.

[1] = stain time 30 min (12 samples only)
[2] = stain time 60 min (12 samples only)

SMILES	Motility 3h	Progressive 3h	Motility 3h with stimulant (food coloring 1.5 μl/mL)	Progressive 3h with stimulant (food coloring 1.5 μl/mL)	Motility 3h with stimulant (food coloring 2 μl/mL)	Progressive 3h with stimulant (food coloring 2 μl/mL)	Motility 3h with stimulant (food coloring 2.5 μl/mL)	Progressive 3h with stimulant (food coloring 2.5 μl/mL)	Motility 3h with stimulant (food coloring 3 μl/mL)	Progressive 3h with stimulant (food coloring 3 μl/mL)	Motility 3h with stimulant (pH 7.1, stain time 30 min)	Progressive 3h with stimulant (pH 7.1, stain time 30 min)	Motility 3h with stimulant (pH 7.1, stain time 60 min)	Progressive 3h with stimulant (pH 7.1, stain time 60 min)	Motility 3h with stimulant (pH 7.9, stain time 30 min)	Progressive 3h with stimulant (pH 7.9, stain time 30 min)	Motility 3h with stimulant (pH 7.9, stain time 60 min)	Progressive 3h with stimulant (pH 7.9, stain time 60 min)	Motility 3h with stimulant (stain pH 7.1)	Progressive 3h with stimulant (stain pH 7.1)	other results
Cn1c(=O)c2c(ncn2C)n(C)c1=O [Caffeine, caffeine]	67.71	66.56	66.67	65.42	68.33	67.5	68.75	67.92	67.08	65.42	66.67	65	70	70	66.67	65	67.5	65.83	68.54	67.5	Effect of stimulant on sperm cell motility (FIG. 5) (about 2 mM): stimulate motility; Motility 3h with stimulant (stain pH 7.9): 66.88; Progressive 3h with stimulant (stain pH 7.9): 65.63; Motility 3h with stimulant [1]: 66.67; Progressive 3h with stimulant [1]: 65; Motility 3h with stimulant [2]: 68.75; Progressive 3h with stimulant [2]: 67.92; Motility 3h with stimulant (stallion Gunsmoke): 66.25; Progressive 3h with stimulant (stallion Gunsmoke): 63.13; Motility 3h with stimulant (stallion Rowdy): 67.5; Progressive 3h with stimulant (stallion Rowdy): 67.5; Motility 3h with stimulant (stallion Sylekt): 69.38; Progressive 3h with stimulant (stallion Sylekt): 69.06
CC(=O)C(=O)O [Pyruvate, NaPyruvate]	65.1	62.29	64.58	62.08	65	60.83	65.83	64.58	65	61.67	64.17	60.83	67.5	66.67	65	60	64.17	62.5	65.83	63.13	Motility 3h with stimulant (stain pH 7.9): 64.38; Progressive 3h with stimulant (stain pH 7.9): 61.46; Motility 3h with stimulant [1]: 64.58; Progressive 3h with stimulant [1]: 60.42; Motility 3h with stimulant [2]: 65.83; Progressive 3h with stimulant [2]: 64.58; Motility 3h with stimulant (stallion Gunsmoke): 62.19; Progressive 3h with stimulant (stallion Gunsmoke): 56.56; Motility 3h with stimulant (stallion Rowdy): 67.19; Progressive 3h with stimulant (stallion Rowdy): 67.19; Motility 3h with stimulant (stallion Sylekt): 65.94; Progressive 3h with stimulant (stallion Sylekt): 63.13
